Key:
hLeptin [1] = experiment: Human leptin in mouse plasma (ELISA) after IV tail vein injection of encapsulated leptin mRNA; format: in vivo; conditions: 0.4 mpk, C57 mice, @ 24 h
Procedure: (§1) Human leptin in mouse plasma was measured by ELISA. Antibodies purchased from the R&D Systems duoset (Cat# DY398E, part#840279 for capture antibody and part#840280 for detection antibody) were reconstituted using PBS and titered, again using PBS. The capture antibody was coated at 4 ug/ml in 30 ul/well on a white Nunc® Maxisorp 384 well plate (Cat#460372). After an overnight incubation at room temperature the capture antibody was aspirated and the plate blocked for 2 hours at room temperature with 90 ul/well of KPL milk blocker (Cat#50-82-00). Once the incubation was completed the plate was aspirated and recombinant standards and samples were added to the plate at 30 ul/well for 2 hours at 37° C. while shaking at 600 rpm. Sample/standard dilutions were made using casein sample diluent. Washing/aspiration 3 times with 100 ul/well followed, using Teknova plate wash solution (Cat# P1192). […] The plate was quickly read using a SpectramaxM5 plate reader with a 50 ms integration time. […]
Before the tail vein injection, mouse body weights were recorded and diet weighted, with mice grouped according to their body weights. […]
On day 0, animals were weighed and sorted according to average body weight. Mice were dosed, and food intake (FI) was recorded, on each of days 1-7 and days 9, 11, and 16.

[2] = test system: plasma Factor VII enzyme activity; experiment: Factor VII Activity Assay after IV dosing of formulated Factor VII siRNA in mice; format: in vivo, mouse; conditions: 0.03 mpk, CD-1 mice, about 48 hours after injection
Procedure: Female CD-1 mice were received from Harlan Labs and maintained on standard lab chow and water ad libitum. The animals weighed approximately 25 gr at time of dosing. Formulated Factor VII siRNA was administered as a single dose intravenously via the lateral tail vein. Approximately 48 hours after injection, the mice were euthanized by CO2 inhalation followed by exsanguination through the vena cava.
Plasma collected from injected mice was assayed for Factor VII enzyme activity using the Biophen FVII kit from Hyphen Biomedical (catalog number 221304). An assay standard curve was prepared using pooled plasma aliquots from the vehicle control animals. All samples were diluted to fall within the linear range of the standard curve and Factor VII activity relative to control plasma was reported.
Lipid nanoparticles comprising lipid compounds of formula (I) and the FVII siRNA duplex sequence listed above were tested in the Factor VII Activity Assay. The results of this assay are given in Table 3 4 below as a percent knock down of plasma Factor VII enzyme activity at a dose of 0.3 mg/kg and 0.03 mg/kg.

hLeptin [3] = experiment: Human leptin in mouse plasma (ELISA) after subcutaneous injection of encapsulated leptin mRNA; format: in vivo; conditions: C57 mice
Procedure: as §1
Prior to subcutaneous injection, mouse body weights were recorded and diet weighted, with mice grouped according to their body weights. […]
On day 0, animals were weighed and sorted according to average body weight. ice were dosed at 9 AM and blood was taken at 9 AM on day 0. Blood was also taken at 9 AM on each of days 1 and 2 and assessed for leptin protein levels. Body weight and food intake were also recorded.

| Compound | Expression of protein following IV injection of encapsulated mRNA: hLeptin (hLeptin [1]) [ng/mL] | FVII knock-down (%) following IV injection of encapsulated siRNA [2] [%/0.03 mpk] | Expression of protein following SC injection of encapsulated mRNA: hLeptin (hLeptin [3]; 0.6 mpk) [ng/mL] | Expression of protein following SC injection of encapsulated mRNA: hLeptin (hLeptin [3]; 0.4 mpk) [ng/mL] |
| --- | --- | --- | --- | --- |
| CCCCC/C=C\C/C=C\CCCCCCCC(=O)OCC(COC(=O)CCC(OCCCCCCCC)OCCCCCCCC)COC(=O)OCCCN(CC)CC (stereo not drawn) [Example 13, (9Z,12Z)-3-((4,4-bis(octyloxy)butanoyl)oxy)-2-((((3-(diethylamino)propoxy)carbonyl)oxy)methyl)propyl octadeca-9,12-dienoate] | 3.8 | 97 |  |  |
| CCCCC/C=C\C/C=C\CCCCCCCC(=O)OCC(COC(=O)CCC(OCCCCCCCC)OCCCCCCCC)COC(=O)OCC1CCCN(CC)C1 (stereo not drawn) [Example 15, (9Z,12Z)-3-((4,4-bis(octyloxy)butanoyl)oxy)-2-(((((1-ethylpiperidin-3-yl)methoxy)carbonyl)oxy)methyl)propyl octadeca-9,12-dienoate] |  |  | 6.2 |  |
| CCCCC/C=C\C/C=C\CCCCCCCC(=O)OCC(COC(=O)CCCCCCC/C=C\C/C=C\CCCCC)COC(=O)C1(C)CCN(C)C1 (stereo not drawn) [Example 1, (9Z,9′Z,12Z,12′Z)-2-(((1,3-dimethylpyrrolidine-3-carbonyl)oxy)methyl)propane-1,3-diyl bis(octadeca-9,12-dienoate)] | 12.3 | 69 |  | 2.5 |
